Data published in PMC7093131, “Structural and Biomolecular Analyses of Borrelia burgdorferi BmpD Reveal a Substrate-Binding Protein of an ABC-Type Nucleoside Transporter Family” (Infection and Immunity, 2020).

Molecular target: T1, BmpD (rBmpD; LF-rBmpD) (Borreliella burgdorferi, UniProt P0CL55)
T1 construct: signal peptide (residues 1 to 17) removed; N-terminal hexahistidine tag (pET-30a(+)) kept; E. coli BL21(DE3)pLys; 39 kDa; monomer; printed end 323 may be in mature count
T1 sequence (P0CL55 18-341): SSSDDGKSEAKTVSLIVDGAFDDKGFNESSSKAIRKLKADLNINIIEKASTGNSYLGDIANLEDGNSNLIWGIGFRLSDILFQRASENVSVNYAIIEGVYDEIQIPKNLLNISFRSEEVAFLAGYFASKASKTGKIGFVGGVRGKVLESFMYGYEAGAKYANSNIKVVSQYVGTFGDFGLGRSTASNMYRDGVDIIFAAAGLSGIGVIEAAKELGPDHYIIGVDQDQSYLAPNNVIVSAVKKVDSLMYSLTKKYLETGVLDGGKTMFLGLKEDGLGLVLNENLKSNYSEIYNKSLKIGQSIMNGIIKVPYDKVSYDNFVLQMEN
Test: X-ray crystal structure ([…] A) with LC-MS of co-purified ligand; label-free MST on refolded LF-rBmpD
Type: binding
Conditions: endogenously bound from E. coli expression, crystals at pH 8.0; MST: 500 nM refolded ligand-free protein, single experiment, no Kd displayed

Compound: Nc1ncnc2c1ncn2[C@@H]1O[C@H](CO)[C@@H](O)[C@H]1O [adenosine]
- X-ray crystal structure (1.43 A) with LC-MS of co-purified ligand; label-free MS: the ligand was a purine nucleoside, which was confirmed to be an adenosine
